Test results as given in patent US20190117770A1, “USES OF IMMUNOCONJUGATES TARGETING CD138” (Biotest AG, priority 2011, published 2019).
“Also recorded” adds a separate entry of the source. Like-named read-outs stand apart in the source and are kept apart here.

Test system: relapsed or relapsed refractory multiple myeloma
Experimental: Initially, the response to treatment was evaluated at day 1 of treatment cycles 1-3 by M-protein quantification using immunoelectrophoresis (IEP) and immunofixation electrophoresis (IFE) from serum and 24-hour urine collection. […] A general quantitative immunoglobulin assessment was done together with M-protein quantification.
Serum samples were used to perform FLC assays to examine multiple myeloma subjects with no detectable M-protein (nonsecretory/oligosecretory myeloma) and to allow for detection of early response to treatment. Therefore serum FLC assays were performed on day 1, 2, 3, and 8 of treatment cycle 1, on day 2, 3, 8 and 15 of cycle 4, as well as on day 1, 8 and 15 of all other treatment cycles. M-protein and FLC were be analyzed at the screening and at the close-out visit. Evaluations at day 1 of cycle 1 served as baseline values.

[1] = repeated single doses of 160 mg/m^2 (FIG. 28)

Substance: BT062
- treatment cycles of 21 days without disease progression (20 mg/m^2, one patient): 10 cycles and Diseases progression after Cycle 10 cycles
- response (urine M-protein criteria) (20 mg/m^2, after 8th treatment): M-Protein criteria for Minor Response reached after 8th
- Serum M-Protein (40 mg/m^2, after 1st treatment): Serum M-Protein decreased after 1st treatment and stabilized
- response (FLC criteria) (160 mg/m^2, after 2nd, 3rd and 4th administration (FIG. 26)): partial response; also recorded: FLC criteria for Partial Response were reached very early
- FLC levels reduced vs baseline (160 mg/m^2, after 2nd, 3rd and 4th treatment): > 50%
- FLC levels reduced vs baseline (160 mg/m^2, during 1st cycle): ~40%
- toxicity in the mucosa (200 mg/m^2 dose group): DLTs
- patients out of 32 with diminished disease progression (at least a fourth treatment cycle) (all dose levels): At least 12
- MTD (human, in vivo): 160 mg/m^2
- decrease of urine M-protein (repeated single dosages, e.g. 20, 40, 80 and 120 mg/m^2): more than 50%
- MAD (repeated single dose): 200 mg/m^2
- toxicity towards non-cancer cells expressing CD138 (repeated single dose up to 120 mg/m^2): no dose limiting toxicity
- eye toxicity (repeated single dose, not qualifying for DLT): Serious adverse events
- M-protein levels reduced by [1]: 25%
- progression free survival [1]: about 22 months
- Tolerability (single dose every three weeks, 200 mg/m^2): DLTs
- dose limiting toxicity (DLT) dose (single dose once in 21 day cycle): 200 mg/m^2
